According to patent US12716050B2, “Two methods for preparing universal microbial medium by eutectic system-based cellulose liquefaction” (Xinjiang University, priority 2021, dated 2026):
Read-outs that look alike come from different tables or passages of the source.

Columns and labels:
[1] = Screening of ionic liquids for dissolving microcrystalline cellulose; format: physicochemical
[2] = system: Escherichia coli; settings: LB solid medium, 48 h
Source text: Therefore, a purpose of this example is to screen a concentration range of the ionic liquid contained in the medium.

[3] = No. 8: 10 g IL, 1 g microcrystalline cellulose, 90° C., co-heated
[4] = No. 11: 5 g IL, 3 g microcrystalline cellulose, 90° C., co-heated
[5] = No. 3: 5 g IL, 3 g microcrystalline cellulose, 90° C., co-heated

Compound: C=CCn1cc[n+](C)c1.[Cl-] [1-allyl-3-methylimidazolium chloride]
- Conclusion (dissolution effect of microcrystalline cellulose) [1, 3]: desirable
- Dissolution time [1, 3]: 40 min
- Conclusion (dissolution effect of microcrystalline cellulose) ([1]; No. 9: 5 g IL, 1 g microcrystalline cellulose, IL heated to 100° C.): common
- Dissolution time ([1]; No. 9: 5 g IL, 1 g microcrystalline cellulose, IL heated to 100° C., cellulose added): 20 min
- Conclusion (dissolution effect of microcrystalline cellulose) ([1]; No. 10: 5 g IL, 2 g microcrystalline cellulose, 100° C., soaked in IL for 20 h, co-heated): common
- Dissolution time ([1]; No. 10: 5 g IL, 2 g microcrystalline cellulose, 100° C., soaked in IL for 20 h, co-heated in water bath): 10 min
- Conclusion (dissolution effect of microcrystalline cellulose) [1, 4]: has a poor
- Dissolution time [1, 4]: 240 min

Compound: CCCCn1cc[n+](C)c1.[Cl-] [1-butyl-3-methylimidazolium chloride]
- Ionic liquid concentration at which the growth of Escherichia coli is inhibited [2]: not less than 3%
- Growth state of strains ([2]; ionic solution concentration 1%): Normal
- Growth state of strains ([2]; ionic solution concentration 3%): Slightly inhibited
- Growth state of strains ([2]; ionic solution concentration 4%): Inhibited growth
- Growth state of strains ([2]; ionic solution concentration 5%): Inhibited growth
- Growth state of strains ([2]; ionic solution concentration 6%): No growth
- Growth state of strains ([2]; ionic solution concentration 7%): No growth
- Conclusion (dissolution effect) (Treatment 1: 10 g IL, 1 g microcrystalline cellulose, co-heated to 90° C., repeated): Poor
- Conclusion (dissolution effect) (Treatment 2: 10 g IL, 1 g cellulose, IL heated to 90° C., heating to 90° C. repeated): Common
- Conclusion (dissolution effect) (Treatment 3: 10 g IL, 1 g cellulose, IL heated to 90° C., heating to 100° C. repeated): Common
- Conclusion (dissolution effect) (Treatment 4: 10 g IL, 1 g cellulose, IL heated to 90° C., heating to 110° C. repeated): Common
- Conclusion (dissolution effect) (Treatment 5: 10 g IL, 1 g cellulose, IL heated to 90° C., heating to 120° C. repeated): Common
- Conclusion (dissolution effect) (Treatment 6: 10 g IL, 1 g cellulose, 90° C., 120° C., heating to 180° C. repeated): Desirable
- Conclusion (dissolution effect) (Treatment 7: 8 g IL, 1 g cellulose, 90° C., 120° C., heating to 180° C. repeated): Desirable
- Conclusion (dissolution effect) (Treatment 8: 5 g IL, 1 g cellulose, 90° C., 180° C., heating to 180° C. repeated): Desirable
- Conclusion (dissolution effect) (Treatment 9: 5 g IL, 1.5 g cellulose, 90° C., 120° C., heating to 180° C. repeated): Desirable
- Conclusion (dissolution effect) (Treatment 10: 5 g IL, 2 g cellulose, 90° C., 120° C., heating to 180° C. repeated): Desirable
- Conclusion (dissolution effect) (Treatment 11: 5 g IL, 2.5 g cellulose, 90° C., 120° C., heating to 180° C. repeated): Desirable
- Conclusion (dissolution effect of microcrystalline cellulose) ([1]; No. 1: 10 g IL, 1 g microcrystalline cellulose, 90° C., co-heated): desirable
- Dissolution time ([1]; No. 1: 10 g IL, 1 g microcrystalline cellulose, 90° C., co-heated, stirred 20 sec every 5 min): 40 min
- Conclusion (dissolution effect of microcrystalline cellulose) ([1]; No. 2: 5 g IL, 3 g microcrystalline cellulose, 110° C., IL preheated to liquid state): desirable
- Dissolution time ([1]; No. 2: 5 g IL, 3 g microcrystalline cellulose, 110° C., IL preheated to liquid state, mixed by stirring): 1 min
- Conclusion (dissolution effect of microcrystalline cellulose) [1, 5]: common
- Dissolution time [1, 5]: 240 min
- Effect in pretreatment of cellulose ([1]; overall conclusion of Example 1): could well process the cellulose
